US6410581B1, “Disubstituted biphenyloxazolines” (Bayer Aktiengesellschaft, priority 1997, dated 2002)
Blank lines part the entries; values can stand above or below the molecule they belong to.

What was measured:
[1] = test system: larvae of the mustard beetle (Phaedon cochleariae); assay: Phaedon larvae test; format: in vivo; details: after 7 days
Protocol: (§1) Solvent: 7 parts by weight of dimethylformamide
(§2) Emulsifier: 1 part by weight of alkylaryl polyglycol ether
To produce a suitable preparation of active compound, 1 part of weight of active compound is mixed with the stated amount of solvent and the stated amount of emulsifier, and the concentrate is diluted with water to the desired concentration.
After the desired period of time, the kill in % is determined. 100% means that all the beetle larvae have been killed; 0% means that none of the beetle larvae have been killed.

[2] = test system: All larval stages of Lucilia cuprina (OP resistant); assay: Test with fly larvae/development-inhibitory activity; format: in vivo; details: concentration 100 ppm
Protocol: Test with Fly Larvae/development-inhibitory Activity
Test animals: All larval stages of Lucilia cuprina (OP resistant) [pupae and adults (without contact with the active compound)]
35 parts by weight of ethylene glycol monomethyl ether
35 parts by weight of nonylphenol polyglycol ether
To prepare a suitable formulation, 3 parts by weight of active compound are mixed with 7 parts of the abovementioned solvent-emulsifier mixture, and the resulting emulsion concentrate is diluted with water to the concentration desired in each case.
For each concentration, 30 to 50 larvae are transferred to horse meat (1 cm^3) located in glass tubes, and 500 μl of the test dilution are pipetted onto the meat. The glass tubes are placed into plastic beakers whose bottom is covered with sea sand and kept in a controlled-environment cabinet (26° C. ±1.5° C., 70% ±10% relative humidity). Larvicidal activity is checked after 24 hours and 48 hours. After the larvae have left (about 72 h), the glass tubes are removed and perforated plastic lids are placed on the beakers. After 1½ times the development period (hatching of the control flies), the hatched flies and the pupae/puparia are counted.
The criterion for the activity is the death of the treated larvae after 48 h (larvicidal effect), or inhibition of adults hatching from the pupae or inhibition of pupation. […]

[3] = log p, n-octanol/water partition coefficient by reverse phase HPLC (H2O/CH3CN); format: physicochemical; details: for log p: pH 7.5
[4] = test system: greenhouse red spider mite (Tetranychus urticae); assay: Tetranychus test (OP resistant/dip treatment); format: in vivo; details: active compound concentration 0.01%, after 7 days
Protocol: Tetranychus Test (OP Resistant/Dip Treatment)
Solvent: 3 parts by weight of dimethylformamide
as §2
To produce a suitable preparation of active compound, 1 part by weight of active compound is mixed with the stated amount of solvent and the stated amount of emulsifier, and the concentrate is diluted to the desired concentration using emulsifier-containing water.
Bean plants (Phaseolus vulgaris) which are heavily infested by all stages of the greenhouse red spider mite (Tetranychus urticae) are dipped into an active compound preparation of the desired concentration.
After the desired period of time, the kill in % is determined. 100% means that all the spider mites have been killed; 0% means that none of the spider mites have been killed.

[5] = test system: caterpillars of the army worm (Spodoptera exigua); assay: Spodoptera exigua test; format: in vivo; details: active compound concentration 0.1%, after 6 days
Protocol: as §1, §2
(§3) To produce a suitable preparation of active compound, 1 part by weight of active compound is mixed with the stated amount of solvent and the stated amount of emulsifier, and the concentrate is diluted with water to the desired concentration.
Cabbage leaves (Brassica oleracea) are treated by being dipped into the active compound preparation of the desired concentration and populated with caterpillars of the army worm (Spodoptera exigua) while the leaves are still moist.
After the desired period of time, the activity in % is determined. 100% means that all the caterpillars have been killed; 0% means that none of the caterpillars have been killed.

[6] = test system: caterpillars of the diamond back moth (Plutella xylostella); assay: Plutella test; format: in vivo; details: active compound concentration 0.1%, after 6 days
Protocol: as §1, §2, §3
Cabbage leaves (Brassica oleracea) are treated by being dipped into the active compound preparation of the desired concentration and populated with caterpillars of the diamond back moth (Plutella xylostella) while the leaves are still moist.
(§4) After the desired period of time, the kill in % is determined. 100% means that all the caterpillars have been killed; 0% means that none of the caterpillars have been killed.

[7] = test system: caterpillars of the owlet moth (Spodoptera frugiperda); assay: Spodoptera test; format: in vivo; details: active compound concentration 0.1%, after 7 days
Protocol: as §1, §2, §3
Cabbage leaves (Brassica oleracea) are treated by being dipped into the active compound preparation of the desired concentration and populated with caterpillars of the owlet moth (Spodoptera frugiperda) while the leaves are still moist.
as §4

[8] = test system: caterpillars of the cotton bollworm (Heliothis armigera); assay: Heliothis armigera test; format: in vivo; details: active compound concentration 0.1%, in 6 days
Protocol: as §1, §2
To produce a suitable preparation of active compound, 1 part by weight of active compound is mixed with the stated amounts of solvent and emulsifier, and the concentrate is diluted with water to the desired concentration.
Soya bean shoots (Glycine max) are treated by being dipped into the active compound preparation of the desired concentration and populated with caterpillars of the cotton bollworm (Heliothis armigera) while the leaves are still moist.
as §4

[9] = test system: green rice leaf hoppers (Nephotettix cincticeps); assay: Nephotettix test; format: in vivo; details: active compound concentration 1%, after 6 days
Protocol: as §1, §2, §3
Rice seedlings (Oryza sativa) are treated by being dipped into the active compound preparation of the desired concentration and populated with green rice leaf hoppers (Nephotettix cincticeps) while the seedlings are still moist.
After the desired period of time, the kill in % is determined. 100% means that all the leaf hoppers have been killed; 0% means that none of the leaf hoppers have been killed.

[10] = active compound concentration 0.01%
[11] = active compound concentration 0.1%

melting point: 60 to 62 °C
Compound: CCCc1cc(-c2ccc(C3COC(c4c(F)cccc4F)=N3)cc2)ccc1OC(C)C (stereo not shown) [Example I-2, 2-(2,6-Difluorophenyl)-4-(4-(4-propyl-2-oxy)-3-n-propylphenyl)phenyl-2-oxazoline]
kill in % [1, 10]: 100%

Compound: CC(C)Oc1ccc(-c2ccc(C3COC(c4c(F)cccc4F)=N3)cc2)cc1Cl (stereo not shown) [Example I-19]
kill in % [1, 10]: 100%
development-inhibitory activity [2]: 100%
log p [3]: log p (pH 7.5): 4.96

Compound: CC(C)(C)c1ccc(COc2ccc(-c3ccc(C4COC(c5c(F)cccc5F)=N4)cc3)cc2Cl)cc1 (stereo not shown) [Example I-22]
development-inhibitory activity [2]: 100%

Compound: CC(C)Oc1ccc(-c2ccc(C3COC(c4ccccc4Cl)=N3)cc2)cc1Cl (stereo not shown) [Example I-30]
kill in % [1, 10]: 100%
log p [3]: log p (pH 7.5): 5.37

Compound: CC(C)Oc1c(Cl)cc(-c2ccc(C3COC(c4c(F)cccc4F)=N3)cc2)cc1Cl (stereo not shown) [Example I-342, 2-(2,6-Difluorophenyl)-4-(4-(4-(propyl-2-oxy)-3,5-dichlorophenyl)phenyl)-4,5-dihydro-oxazoline]
kill in % [1, 11]: 100%
kill in % [4]: 100%
kill in % [5]: 100%
kill in % [6]: 100%
log p [3]: 5.65
kill in % [7]: 100%
kill in % [8]: 100%

Compound: C=CCOc1c(Cl)cc(-c2ccc(C3COC(c4c(F)cccc4F)=N3)cc2)cc1Cl (stereo not shown) [Example I-344]
kill in % [1, 11]: 100%
kill in % [4]: 100%
kill in % [9]: 100%
kill in % [7]: 100%

log p [3]: log p: 4.42
Compound: C=CCc1cc(-c2ccc(C3COC(c4ccccc4Br)=N3)cc2)cc(Cl)c1O (stereo not shown) [II-21]

log p [3]: log p: 3.42
Compound: CCc1cc(-c2ccc(C3COC(c4c(F)cccc4F)=N3)cc2)ccc1O (stereo not shown) [II-24]

Compound: CCCc1cc(-c2ccc(C(CCl)NC(=O)c3c(F)cccc3F)cc2)ccc1OC(C)=O (stereo not shown) [VI-1, 2,6-Difluoro-N-[2-chloro-1-(4-(4-acetoxy-3-n-propylphenyl)phenyl)ethyl]-benzamide]
chromatographic logP ([3]; n-octanol/water, pH 2.3): 3.92
